Reference: patent publication US8268821B2, “Methods and compositions” (priority 2003, dated 2012)
Marks after values point to notes of the source that are not given here.

System: cancer-related neuropathic pain
Experiment: Open label dose escalation study of flupirtine, case studies JE and RM
Settings: for SCORE WALKING / SCORE ENJOYMENT / SCORE TOTAL ACTIVITY / SCORE MOOD / SCORE RELATIONSHIPS / SCORE SLEEP / SCORE GENERAL ACTIVITY: pain interference 1-10; for SCORE WALKING: day 1 baseline 7; for SCORE ENJOYMENT / SCORE TOTAL ACTIVITY / AVERAGE PAIN LAST 24 HOURS: day 1 baseline 8; for SCORE NAUSEA / SCORE UN[…] GAIT: day 1 baseline 2; for SCORE POOR CONCENTRATION / WHO PERFORMANCE STATUS / SCORE SLEEP: day 1 baseline 3; for SCORE DROWSINESS / SCORE POOR APPETITE: day 1 baseline 4; for WORST PAIN SCORE LAST 24 HOURS: day 1 baseline 10; for neuropathic dwascriminant function score: >0 = neuropathic, day 1 baseline 2.448; for freezing pain score / score for increased pain due to touch / score for increased pain due to weather changes / squeezing pain score: day 1 baseline 0; for burning pain score: day 1 baseline 90; for electric pain score / for shooting pain score / numbness score / score for overly sensitive to touch / tingling pain score / unpleasant pain score: day 1 baseline 95; for overwhelming pain score: day 1 baseline 98; for SCORE GENERAL ACTIVITY: day 1 baseline 5
[1] = JE day 5, flupirtine 100 mg qid
[2] = JE day 5, flupirtine 100 mg qid, scale 1-4, day 1 baseline 1
[3] = JE day 5, flupirtine 100 mg qid, scale 1-4
[4] = JE day 5, flupirtine 100 mg qid, scale to 10, day 1 baseline 1
[5] = JE day 5, flupirtine 100 mg qid, scale to 10
[6] = JE day 6, flupirtine 100 mg qid
[7] = JE day 6, flupirtine 100 mg qid, day 1 baseline 1
[8] = JE day 6, flupirtine 100 mg qid, scale 1-4, day 1 baseline 1
[9] = JE day 6, flupirtine 100 mg qid, scale 1-4
[10] = JE day 6, flupirtine 100 mg qid, scale to 10, day 1 baseline 1
[11] = JE day 6, flupirtine 100 mg qid, scale to 10
[12] = JE day 7, flupirtine 100 mg qid
[13] = JE day 7, flupirtine 100 mg qid, day 1 baseline 1
[14] = JE day 7, flupirtine 100 mg qid, scale 1-4, day 1 baseline 1
[15] = JE day 7, flupirtine 100 mg qid, scale 1-4
[16] = JE day 7, flupirtine 100 mg qid, scale to 10, day 1 baseline 1
[17] = JE day 7, flupirtine 100 mg qid, scale to 10
[18] = JE day 8, flupirtine 100 mg qid
[19] = JE day 8, flupirtine 100 mg qid, day 1 baseline 1
[20] = JE day 8, flupirtine 100 mg qid, scale 1-4
[21] = JE day 8, flupirtine 100 mg qid, scale 1-4, day 1 baseline 1
[22] = JE, day after day 8 (discharge), flupirtine 100 mg QID with Oxycontin 40 mg/24 hrs, scale to 10

Structure (SMILES): CCOC(=O)Nc1ccc(NCc2ccc(F)cc2)nc1N [flupirtine]
- SCORE WALKING [1]: 1
- SCORE ENJOYMENT [1]: 3
- SCORE TOTAL ACTIVITY [1]: 1
- SCORE CONSTIPATION [2]: 4
- SCORE INDIGESTION [2]: 1
- SCORE NAUSEA [3]: 1
- SCORE UN[…] GAIT [3]: 4
- SCORE POOR CONCENTRATION [3]: 4
- SCORE DROWSINESS [3]: 4
- SCORE POOR APPETITE [3]: 4
- LEAST PAIN LAST 24 HRS [4]: 0
- PAIN SCORE RIGHT NOW [4]: 0
- AVERAGE PAIN LAST 24 HOURS [5]: 0
- WORST PAIN SCORE LAST 24 HOURS [5]: 6
- WHO PERFORMANCE STATUS (JE day 6, flupirtine 100 mg qid, 0=fully active, 4=completely disabled): 3
- neuropathic dwascriminant function score [6]: −1.048
- freezing pain score [6]: 0
- score for increased pain due to touch [6]: 80
- score for increased pain due to weather changes [6]: 0
- squeezing pain score [6]: 0
- burning pain score [6]: 0
- electric pain score [6]: 0
- for shooting pain score [6]: 0
- numbness score [6]: 0
- score for overly sensitive to touch [6]: 0
- tingling pain score [6]: 0
- unpleasant pain score [6]: 0
- overwhelming pain score [6]: 40
- SCORE MOOD [7]: 1
- SCORE RELATIONSHIPS [7]: 1
- SCORE SLEEP [6]: 1
- SCORE GENERAL ACTIVITY [6]: 1
- SCORE WALKING [6]: 1
- SCORE ENJOYMENT [6]: 1
- SCORE TOTAL ACTIVITY [6]: 1
- SCORE CONSTIPATION [8]: 1
- SCORE INDIGESTION [8]: 1
- SCORE NAUSEA [9]: 1
- SCORE UN[…] GAIT [9]: 3
- SCORE POOR CONCENTRATION [9]: 2
- SCORE DROWSINESS [9]: 3
- SCORE POOR APPETITE [9]: 2
- LEAST PAIN LAST 24 HRS [10]: 0
- PAIN SCORE RIGHT NOW [10]: 8
- AVERAGE PAIN LAST 24 HOURS [11]: 8
- WORST PAIN SCORE LAST 24 HOURS [11]: 9
- WHO PERFORMANCE STATUS (JE day 7, flupirtine 100 mg qid, 0=fully active, 4=completely disabled): 3
- neuropathic dwascriminant function score [12]: −1.408
- freezing pain score [12]: 0
- score for increased pain due to touch [12]: 0
- score for increased pain due to weather changes [12]: 0
- squeezing pain score [12]: 0
- burning pain score [12]: 0
- electric pain score [12]: 0
- for shooting pain score [12]: 0
- numbness score [12]: 0
- score for overly sensitive to touch [12]: 0
- tingling pain score [12]: 0
- unpleasant pain score [12]: 0
- overwhelming pain score [12]: 0
- SCORE MOOD [13]: 1
- SCORE RELATIONSHIPS [13]: 1
- SCORE SLEEP [12]: 1
- SCORE GENERAL ACTIVITY [12]: 1
- SCORE WALKING [12]: 1
- SCORE ENJOYMENT [12]: 1
- SCORE TOTAL ACTIVITY [12]: 1
- SCORE CONSTIPATION [14]: 1
- SCORE INDIGESTION [14]: 1
- SCORE NAUSEA [15]: 1
- SCORE UN[…] GAIT [15]: 2
- SCORE POOR CONCENTRATION [15]: 1
- SCORE DROWSINESS [15]: 3
- SCORE POOR APPETITE [15]: 3
- LEAST PAIN LAST 24 HRS [16]: 0
- PAIN SCORE RIGHT NOW [16]: 0
- AVERAGE PAIN LAST 24 HOURS [17]: 0
- WORST PAIN SCORE LAST 24 HOURS [17]: 4
- WHO PERFORMANCE STATUS (JE day 8, flupirtine 100 mg qid, 0=fully active, 4=completely disabled): 3
- freezing pain score [18]: 0
- score for increased pain due to touch [18]: 0
- score for increased pain due to weather changes [18]: 0
- squeezing pain score [18]: 0
- burning pain score [18]: 0
- electric pain score [18]: 0
- for shooting pain score [18]: 0
- numbness score [18]: 90
- score for overly sensitive to touch [18]: 0
- tingling pain score [18]: 0
- unpleasant pain score [18]: 95
- overwhelming pain score [18]: 95
- SCORE MOOD [19]: 8
- SCORE RELATIONSHIPS [19]: 1
- SCORE SLEEP [18]: 10
- SCORE GENERAL ACTIVITY [18]: 1*
- SCORE WALKING [18]: 1*
- SCORE ENJOYMENT [18]: 8
- SCORE TOTAL ACTIVITY [18]: 1*
- other symptoms hallucinations [20]: 1-
- SCORE CONSTIPATION [21]: 1*
- SCORE INDIGESTION [21]: 1
- other symptom twitch [21]: 1-
- SCORE NAUSEA [20]: 1*
- SCORE POOR CONCENTRATION [20]: 1*
- SCORE DROWSINESS [20]: 1*
- SCORE POOR APPETITE [20]: 1*
- PAIN SCORE RIGHT NOW (JE day 8, flupirtine 100 mg qid, scale to 10, day 1 baseline 1): 9
- AVERAGE PAIN LAST 24 HOURS (JE day 8, flupirtine 100 mg qid, scale to 10): 7
- WHO performance status score (JE, day after day 8 (discharge), flupirtine 100 mg QID with Oxycontin 40 mg/24 hrs, 0=fully active, 4=completely disabled): 2
- average pain score for the previous 24 hours [22]: 0
- least pain [22]: 0
- worst pain [22]: 0
- WHO PERFORMANCE STATUS (RM day 2, flupirtine 100 mg qid, 0=fully active, 4=completely disabled): 3
